Laboratory results: the NIST ThermoML archive (doi:10.1007/s10765-009-0579-1)

Assay: xn = mol fraction of the nth substance listed
Details: Gas; for viscosity: Oscillating disk viscometry; for mass density: Pycnometric method

CC(F)(F)Cl [1-chloro-1,1-difluoroethane] + FC(F)Cl
Details | mass density [kg/m3] | viscosity [mPa·s]
298.15 K, 101.5 kPa, x2 = 0.5169 | 3.896 | 0.01164
298.15 K, 101.7 kPa, x2 = 0.7502 | 3.754 | 0.01219
298.15 K, 101.8 kPa, x2 = 0.2615 | 4.07 | 0.01109
298.15 K, 177.1 kPa, x2 = 0.5169 | 6.906 | 0.01163
298.15 K, 198 kPa, x2 = 0.7502 | 7.44 | 0.01217
298.15 K, 205.6 kPa, x2 = 0.2615 | 8.45 | 0.01104
298.15 K, 248.7 kPa, x2 = 0.5169 | 9.867 | 0.0116
298.15 K, 291.6 kPa, x2 = 0.7502 | 11.16 | 0.01212
298.15 K, 299.2 kPa, x2 = 0.2615 | 12.59 | 0.01102
298.15 K, 323.9 kPa, x2 = 0.5169 | 13.12 | 0.01159
298.15 K, 357.3 kPa, x2 = 0.2615 | 15.25 | 0.01103
298.15 K, 384.8 kPa, x2 = 0.7502 | 15.02 | 0.01212
298.15 K, 391.5 kPa, x2 = 0.5169 | 16.21 | 0.01158
298.15 K, 406.4 kPa, x2 = 0.2615 | 17.6 | 0.011
298.15 K, 453.1 kPa, x2 = 0.5169 | 19.06 | 0.01157
298.15 K, 477.3 kPa, x2 = 0.7502 | 18.96 | 0.0121
298.15 K, 571.3 kPa, x2 = 0.7502 | 23.23 | 0.01209
323.15 K, 101.8 kPa, x2 = 0.2615 | 3.732 | 0.01206
323.15 K, 102.2 kPa, x2 = 0.7502 | 3.468 | 0.0132
323.15 K, 102.4 kPa, x2 = 0.2615 | 3.755 | 0.01207
323.15 K, 103 kPa, x2 = 0.5169 | 3.663 | 0.01262
323.15 K, 190 kPa, x2 = 0.5169 | 6.762 | 0.01261
323.15 K, 199 kPa, x2 = 0.7502 | 6.842 | 0.0132
323.15 K, 200 kPa, x2 = 0.2615 | 7.459 | 0.01203
323.15 K, 276.2 kPa, x2 = 0.5169 | 10.03 | 0.01259
323.15 K, 297.3 kPa, x2 = 0.7502 | 10.36 | 0.01317
323.15 K, 299.4 kPa, x2 = 0.2615 | 11.38 | 0.01201
323.15 K, 373.4 kPa, x2 = 0.5169 | 13.8 | 0.01259
323.15 K, 396.6 kPa, x2 = 0.2615 | 15.36 | 0.012
323.15 K, 398.7 kPa, x2 = 0.7502 | 14.09 | 0.01318
323.15 K, 473.2 kPa, x2 = 0.5169 | 17.99 | 0.01258
323.15 K, 492.9 kPa, x2 = 0.2615 | 19.48 | 0.01199
323.15 K, 510 kPa, x2 = 0.7502 | 18.34 | 0.0132
323.15 K, 575.5 kPa, x2 = 0.5169 | 22.07 | 0.01257
323.15 K, 593.3 kPa, x2 = 0.2615 | 23.99 | 0.01199
323.15 K, 618.1 kPa, x2 = 0.7502 | 22.66 | 0.0132
323.15 K, 670.6 kPa, x2 = 0.5169 | 26.3 | 0.01258
323.15 K, 687 kPa, x2 = 0.2615 | 28.43 | 0.01202
323.15 K, 724.7 kPa, x2 = 0.7502 | 26.96 | 0.01318
323.15 K, 771 kPa, x2 = 0.5169 | 30.74 | 0.01259
323.15 K, 793.7 kPa, x2 = 0.2615 | 33.76 | 0.01211
323.15 K, 828.4 kPa, x2 = 0.7502 | 31.41 | 0.0132
323.15 K, 867.1 kPa, x2 = 0.5169 | 35.23 | 0.0126
323.15 K, 937.9 kPa, x2 = 0.7502 | 36.25 | 0.01322
348.15 K, 101.4 kPa, x2 = 0.5169 | 3.305 | 0.01354
348.15 K, 101.6 kPa, x2 = 0.7502 | 3.189 | 0.01427
348.15 K, 102.1 kPa, x2 = 0.2615 | 3.463 | 0.01295
348.15 K, 198.6 kPa, x2 = 0.5169 | 6.548 | 0.01355
348.15 K, 199 kPa, x2 = 0.2615 | 6.847 | 0.01294
348.15 K, 200.7 kPa, x2 = 0.7502 | 6.368 | 0.01423
348.15 K, 296.9 kPa, x2 = 0.2615 | 10.36 | 0.01293
348.15 K, 344.3 kPa, x2 = 0.7502 | 11.09 | 0.01422
348.15 K, 345.4 kPa, x2 = 0.5169 | 11.61 | 0.01355
348.15 K, 446.2 kPa, x2 = 0.2615 | 15.92 | 0.01294
348.15 K, 490.8 kPa, x2 = 0.5169 | 16.98 | 0.01355
348.15 K, 490.8 kPa, x2 = 0.7502 | 16.07 | 0.01424
348.15 K, 590.8 kPa, x2 = 0.2615 | 21.56 | 0.01297
348.15 K, 637.2 kPa, x2 = 0.5169 | 22.25 | 0.01354
348.15 K, 638.2 kPa, x2 = 0.7502 | 21.43 | 0.01423
